pIC50: −log10 of the molar value.
Legend:
[1] = target: T1, PI3K delta (Homo sapiens, UniProt O00329); assay: PI3K delta kinase assay (Kinase-Glo luminescence); assay type: biochemical
T1 construct: for the full-length p110-d subunit are generated and fused by overlapping PCR; p85(iSH2) fusion partner (see partner chain) (N); His tag (C); made in house; host or cells: baculovirus; Tn5 (Trichoplusia ni) or TiniPro insect cells
Procedure, shortened: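 ATP 1 μM, PI 10 μg/mL, PI3Kδ construct BV1060 10 nM (final); 10 mM Tris pH 7.5, 3 mM MgCl2, 50 mM NaCl, 0.05% CHAPS, 1 mM DTT; 60 min RT; Kinase-Glo stop, luminescence.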

[2] = target: T2, mTOR (Homo sapiens, UniProt P42345); assay: Biochemical assay for m-TOR by TR-FRET; settings: 8 μM ATP, 400 nM GFP-4EBP1, 0.5 nM mTOR
T2 construct: purchased Invitrogen Corporation (Carlsbad/CA, USA) PV4753
T2 sequence (P42345 1360-2549 limits assumed): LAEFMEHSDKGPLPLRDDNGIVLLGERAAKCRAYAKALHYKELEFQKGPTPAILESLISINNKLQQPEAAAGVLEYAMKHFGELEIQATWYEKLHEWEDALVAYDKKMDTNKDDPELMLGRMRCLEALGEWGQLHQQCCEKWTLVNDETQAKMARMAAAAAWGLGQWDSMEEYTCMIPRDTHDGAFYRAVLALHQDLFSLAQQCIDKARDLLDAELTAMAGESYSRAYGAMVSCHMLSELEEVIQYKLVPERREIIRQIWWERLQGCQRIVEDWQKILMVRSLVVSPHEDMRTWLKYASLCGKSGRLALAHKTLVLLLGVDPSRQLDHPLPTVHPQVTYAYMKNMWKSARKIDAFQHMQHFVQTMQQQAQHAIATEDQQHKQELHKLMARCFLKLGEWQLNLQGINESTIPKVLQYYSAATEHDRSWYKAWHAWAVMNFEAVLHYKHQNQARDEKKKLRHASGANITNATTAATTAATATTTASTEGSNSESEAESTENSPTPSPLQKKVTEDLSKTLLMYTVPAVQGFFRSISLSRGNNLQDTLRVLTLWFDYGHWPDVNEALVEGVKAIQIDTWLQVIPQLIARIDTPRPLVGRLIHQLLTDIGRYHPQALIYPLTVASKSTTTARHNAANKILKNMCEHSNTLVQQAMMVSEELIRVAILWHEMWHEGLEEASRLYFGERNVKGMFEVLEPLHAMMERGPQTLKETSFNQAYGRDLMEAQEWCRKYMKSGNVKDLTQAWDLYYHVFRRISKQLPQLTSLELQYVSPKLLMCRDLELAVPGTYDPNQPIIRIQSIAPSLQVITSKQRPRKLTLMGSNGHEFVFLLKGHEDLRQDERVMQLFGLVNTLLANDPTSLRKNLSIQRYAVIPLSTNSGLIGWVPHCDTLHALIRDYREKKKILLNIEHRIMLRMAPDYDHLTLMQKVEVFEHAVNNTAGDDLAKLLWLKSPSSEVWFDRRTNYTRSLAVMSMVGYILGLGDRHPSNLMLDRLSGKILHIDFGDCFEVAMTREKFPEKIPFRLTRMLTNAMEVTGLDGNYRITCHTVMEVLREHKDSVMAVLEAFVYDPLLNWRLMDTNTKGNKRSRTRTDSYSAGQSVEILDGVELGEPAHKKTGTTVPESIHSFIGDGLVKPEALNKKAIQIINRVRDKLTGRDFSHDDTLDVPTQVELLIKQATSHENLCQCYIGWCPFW
Procedure, shortened: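 Enzyme 0.5 nM, GFP-4EBP1 400 nM, ATP 8 μM (all final); 50 mM HEPES pH 7.5, 10 mM MnCl2, 1 mM DTT; rt. Detection: Tb-α-p4EBP1 [pT46] 0.5 nM in EDTA, TR-FRET, 15 min. Reference compound on every plate, 16-point duplicate dilutions.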

[3] = system: PKB Ser473 phosphorylation in Rat1-myr-HA-p110 alpha cells; assay: Reverse protein array assay, PKB Ser473 phosphorylation in Rat1-myr-p110 alpha cells; assay type: cell-based; settings: 0.5 h, pAkt Ser473, 30 minutes compound incubation, read-out: p-PKB IC50
Procedure, shortened: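 Compound exposure lasted 30 min in Rat1 cells bearing membrane-targeted HA-p110 isoforms, using 8 serial concentrations. Arrayed lysates, each spotted at four dilutions, gave relative fluorescence signals for phospho-Ser473 PKB.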

T1 sequence (O00329 with tags, fused parts or gaps limits assumed): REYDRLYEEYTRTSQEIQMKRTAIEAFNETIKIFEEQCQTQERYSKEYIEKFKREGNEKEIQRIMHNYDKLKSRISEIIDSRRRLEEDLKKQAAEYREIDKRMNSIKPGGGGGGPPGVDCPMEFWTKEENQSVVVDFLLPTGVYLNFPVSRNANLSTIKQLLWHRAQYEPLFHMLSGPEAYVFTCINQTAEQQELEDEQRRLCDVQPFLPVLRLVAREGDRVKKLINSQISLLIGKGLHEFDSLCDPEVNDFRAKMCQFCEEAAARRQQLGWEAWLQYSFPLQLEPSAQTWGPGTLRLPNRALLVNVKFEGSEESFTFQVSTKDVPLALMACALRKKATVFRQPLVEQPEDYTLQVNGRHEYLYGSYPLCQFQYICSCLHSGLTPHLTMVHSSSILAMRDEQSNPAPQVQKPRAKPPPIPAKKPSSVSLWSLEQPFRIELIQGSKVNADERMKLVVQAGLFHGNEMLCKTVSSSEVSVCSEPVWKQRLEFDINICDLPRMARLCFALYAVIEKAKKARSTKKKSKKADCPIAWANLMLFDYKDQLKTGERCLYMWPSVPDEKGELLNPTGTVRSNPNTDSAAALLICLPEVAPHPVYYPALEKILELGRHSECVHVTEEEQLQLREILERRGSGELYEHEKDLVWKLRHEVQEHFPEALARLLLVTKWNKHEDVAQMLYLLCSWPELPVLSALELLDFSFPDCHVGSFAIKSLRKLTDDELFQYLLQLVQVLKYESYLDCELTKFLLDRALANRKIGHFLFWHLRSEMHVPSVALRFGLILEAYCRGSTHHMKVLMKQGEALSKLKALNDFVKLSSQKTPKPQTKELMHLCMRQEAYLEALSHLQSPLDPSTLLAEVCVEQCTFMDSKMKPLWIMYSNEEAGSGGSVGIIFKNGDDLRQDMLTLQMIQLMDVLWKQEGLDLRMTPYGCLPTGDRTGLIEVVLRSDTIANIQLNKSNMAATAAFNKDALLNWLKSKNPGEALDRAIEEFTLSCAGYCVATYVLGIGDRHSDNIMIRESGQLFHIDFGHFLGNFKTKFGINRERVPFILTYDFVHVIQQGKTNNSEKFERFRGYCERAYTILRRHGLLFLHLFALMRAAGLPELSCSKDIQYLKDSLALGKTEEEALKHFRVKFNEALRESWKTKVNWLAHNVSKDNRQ

pIC50 [1]	pIC50 [2]	pIC50 [3]	Structure (SMILES)
7.28	7.89	7.85	Cc1nn(C(C)C)cc1-n1c(=O)n(C)c2cnc3ccc(-c4ccc(N5CCC5)nc4)cc3c21 [Example 5.2, 8-(6-Azetidin-1-yl-pyridin-3-yl)-1-(1-isopropyl-3-methyl-1H-pyrazol-4-yl)-3-methyl-1,3-dihydro-imidazo[4,5-c]quinolin-2-one]
8.10	7.41	7.10	Cc1nn(C)cc1-n1c(=O)n(C)c2cnc3ccc(-c4cnc(F)c(N)c4)cc3c21 [Example 149.2, 8-(5-Amino-6-fluoro-pyridin-3-yl)-1-(1,3-dimethyl-1H-pyrazol-4-yl)-3-methyl-1,3-dihydro-imidazo[4,5-c]quinolin-2-one]
8.05	8.00	> 8.30	CCNc1cc(-c2ccc3ncc4c(c3c2)n(-c2cn(CC)nc2C)c(=O)n4C)cnc1COC [Example 157, 8-(5-Ethylamino-6-methoxymethyl-pyridin-3-yl)-1-(1-ethyl-3-methyl-1H-pyrazol-4-yl)-3-methyl-1,3-dihydro-imidazo[4,5-c]quinolin-2-one]
7.52	7.70	> 8.30	CCn1cc(-n2c(=O)n(C)c3cnc4ccc(-c5cnc(NC)c(Cl)c5)cc4c32)c(C)n1 [Example 146.2, 8-(5-Chloro-6-methylamino-pyridin-3-yl)-1-(1-ethyl-3-methyl-1H-pyrazol-4-yl)-3-methyl-1,3-dihydro-imidazo[4,5-c]quinolin-2-one]
6.79	7.09		Cc1nn(C)cc1-n1c(=O)n(C)c2cnc3ccc(-c4cnc5c(c4)nc(N(C)C)n5C)cc3c21 [Example 70, 8-(2-Dimethylamino-3-methyl-3H-imidazo[4,5-b]pyridin-6-yl)-1-(1,3-dimethyl-1H-pyrazol-4-yl)-3-methyl-1,3-dihydro-imidazo[4,5-c]quinolin-2-one]
8.40	8.22	8.30	COc1cc(-c2ccc3ncc4c(c3c2)n(-c2cn(C)nc2C)c(=O)n4C)cnc1C [Example 184, 1-(1,3-Dimethyl-1H-pyrazol-4-yl)-8-(5-methoxy-6-methyl-pyridin-3-yl)-3-methyl-1,3-dihydro-imidazo[4,5-c]quinolin-2-one]
6.34	> 8.52	7.82	Cc1nn(CC(=O)N(C)C)cc1-n1c(=O)n(C)c2cnc3ccc(-c4ccc(-n5cccn5)cc4)cc3c21 [Example 51.2, N,N-Dimethyl-2-{3-methyl-4-[3-methyl-2-oxo-8-(4-pyrazol-1-yl-phenyl)-2,3-dihydro-imidazo[4,5-c]quinolin-1-yl]-pyrazol-1-yl}-acetamide]
7.72	7.68	7.33	COc1ccc(-c2ccc3ncc4c(c3c2)n(-c2cn(CCO)nc2C)c(=O)n4C)cn1 [Example 103.1, 1-[1-(2-Hydroxy-ethyl)-3-methyl-1H-pyrazol-4-yl]-8-(6-methoxy-pyridin-3-yl)-3-methyl-1,3-dihydro-imidazo[4,5-c]quinolin-2-one]
8.22	7.82	7.80	CCOc1cncc(-c2ccc3ncc4c(c3c2)n(-c2cn(C)nc2C)c(=O)n4C)c1 [Example 56.1, 1-(1,3-Dimethyl-1H-pyrazol-4-yl)-8-(5-ethoxy-pyridin-3-yl)-3-methyl-1,3-dihydro-imidazo[4,5-c]quinolin-2-one]
6.90	7.72	6.46	Cc1nn(CCO)cc1-n1c(=O)n(C)c2cnc3ccc(-c4cncc(N5CCOCC5)c4)cc3c21 [Example 175.3, 1-[1-(2-Hydroxy-ethyl)-3-methyl-1H-pyrazol-4-yl]-3-methyl-8-(5-morpholin-4-yl-pyridin-3-yl)-1,3-dihydro-imidazo[4,5-c]quinolin-2-one]
7.04	7.02	6.90	COCCOc1cncc(-c2ccc3ncc4c(c3c2)n(-c2cn(C)nc2C)c(=O)n4C)c1 [Example 59.1, 1-(1,3-Dimethyl-1H-pyrazol-4-yl)-8-[5-(2-methoxy-ethoxy)-pyridin-3-yl]-3-methyl-1,3-dihydro-imidazo[4,5-c]quinolin-2-one]
7.82	8.40	7.89	Cc1nn(C)cc1-n1c(=O)n(C)c2cnc3ccc(-c4ccc(N)nc4)cc3c21 [Example 23.1, 8-(6-Amino-pyridin-3-yl)-1-(1,3-dimethyl-1H-pyrazol-4-yl)-3-methyl-1,3-dihydro-imidazo[4,5-c]quinolin-2-one]
7.37	8.15	7.96	Cc1nn(C(C)C)cc1-n1c(=O)n(C)c2cnc3ccc(-c4ccc(N)nc4)cc3c21 [Example 23.2, 8-(6-Amino-pyridin-3-yl)-1-(1-isopropyl-3-methyl-1H-pyrazol-4-yl)-3-methyl-1,3-dihydro-imidazo[4,5-c]quinolin-2-one]
6.04	6.49	6.49	COCCN(C)C(=O)Cn1cc(-n2c(=O)n(C)c3cnc4ccc(-c5ccccc5)cc4c32)c(C)n1 [Example 137, N-(2-Methoxy-ethyl)-N-methyl-2-[3-methyl-4-(3-methyl-2-oxo-8-phenyl-2,3-dihydro-imidazo[4,5-c]quinolin-1-yl)-pyrazol-1-yl]-acetamide]
7.52	6.49	6.66	Cc1nn(C)c(C)c1-n1c(=O)n(C)c2cnc3ccc(-c4cnc(N)nc4)cc3c21 [Example 81.2, 8-(2-Amino-pyrimidin-5-yl)-3-methyl-1-(1,3,5-trimethyl-1H-pyrazol-4-yl)-1,3-dihydro-imidazo[4,5-c]quinolin-2-one]
7.15	7.66	8.15	CCOc1ccc(-c2ccc3ncc4c(c3c2)n(-c2cn(CCO)nc2C)c(=O)n4C)cn1 [Example 103.2, 8-(6-Ethoxy-pyridin-3-yl)-1-[1-(2-hydroxy-ethyl)-3-methyl-1H-pyrazol-4-yl]-3-methyl-1,3-dihydro-imidazo[4,5-c]quinolin-2-one]
8.15	7.51	7.44	CCOc1cc(-c2ccc3ncc4c(c3c2)n(-c2cn(C)nc2C)c(=O)n4C)cnc1CO [Example 243, 1-(1,3-Dimethyl-1H-pyrazol-4-yl)-8-(5-ethoxy-6-hydroxymethyl-pyridin-3-yl)-3-methyl-1,3-dihydro-imidazo[4,5-c]quinolin-2-one]
6.14	6.26	6.89	CCOc1ccc(-c2ccc3ncc4c(c3c2)n(-c2c(C)nn(CC(=O)N(C)C)c2C)c(=O)n4C)cn1 [Example 3.12, 2-{4-[8-(6-Ethoxy-pyridin-3-yl)-3-methyl-2-oxo-2,3-dihydro-imidazo[4,5-c]quinolin-1-yl]-3,5-dimethyl-pyrazol-1-yl}-N,N-dimethyl-acetamide]
7.77	7.10	6.94	COCCOc1cc(-c2ccc3ncc4c(c3c2)n(-c2cn(C)nc2C)c(=O)n4C)cnc1CO [Example 244, 1-(1,3-Dimethyl-1H-pyrazol-4-yl)-8-[6-hydroxymethyl-5-(2-methoxy-ethoxy)-pyridin-3-yl]-3-methyl-1,3-dihydro-imidazo[4,5-c]quinolin-2-one]
8.30	7.92	7.68	COc1ncc(-c2ccc3ncc4c(c3c2)n(-c2cn(C)nc2Cl)c(=O)n4C)cn1 [Example 17.3, 1-(3-Chloro-1-methyl-1H-pyrazol-4-yl)-8-(2-methoxy-pyrimidin-5-yl)-3-methyl-1,3-dihydro-imidazo[4,5-c]quinolin-2-one]
7.72	8.15	7.22	Cc1nn(C)cc1-n1c(=O)n(C)c2cnc3ccc(-c4cncc(N)c4)cc3c21 [Example 45.1, 8-(5-Amino-pyridin-3-yl)-1-(1,3-dimethyl-1H-pyrazol-4-yl)-3-methyl-1,3-dihydro-imidazo[4,5-c]quinolin-2-one]
8.52	7.31	7.55	COC(C)(C)c1cncc(-c2ccc3ncc4c(c3c2)n(-c2cn(C)nc2C)c(=O)n4C)c1 [Example 239, 1-(1,3-Dimethyl-1H-pyrazol-4-yl)-8-[5-(1-methoxy-1-methyl-ethyl)-pyridin-3-yl]-3-methyl-1,3-dihydro-imidazo[4,5-c]quinolin-2-one]
7.80	> 8.52	> 8.30	CNc1ncc(-c2ccc3ncc4c(c3c2)n(-c2cn(C)nc2C)c(=O)n4C)cc1Cl [Example 146.1, 8-(5-Chloro-6-methylamino-pyridin-3-yl)-1-(1,3-dimethyl-1H-pyrazol-4-yl)-3-methyl-1,3-dihydro-imidazo[4,5-c]quinolin-2-one]
7.42		6.66	Cc1nn(C)c(C)c1-n1c(=O)n(C)c2cnc3ccc(-c4cccc(O)c4)cc3c21 [Example 32.2, 8-(3-Hydroxy-phenyl)-3-methyl-1-(1,3,5-trimethyl-1H-pyrazol-4-yl)-1,3-dihydro-imidazo[4,5-c]quinolin-2-one]
